Laboratory results taken from paper PMC12503911, “Cytotoxicity of Atropisomeric [1,1′‐Binaphthalene]‐2,2′‐Diamines (BINAM) and Analogs in Human Cancer Cells: Enantioselectivity, Structure–Activity Relationships, and Mechanism” (Chemmedchem, 2025).
Read-outs that look alike come from different tables or passages of the source.

Experiments:
Experiment in all cases: biochemical
Design in all cases: 33PanQinase radiometric kinase activity assay, residual activity in % of control, contract lab Reaction Biology
Settings in all cases: mean of intraexperimental duplicates, n = 1
AKT1 = AKT1 (Homo sapiens, UniProt P31749)
Protocol: (§1) Kinase Screening was performed at Reaction Biology (Freiburg, Germany) by using the ^33PanQinase Assay.^[ [90] ^] Based on this knowledge, we commissioned a kinase screening by the firm Reaction Biology, targeting those kinases whose inhibition has shown an indirect effect on microtubules. In our selection, we included additional kinases that are known to be involved in centrosome amplification (PLK4^[ [82] ^]), centrosome clustering (CDK1/2,^[ [83] ^] PLK1^[ [84] ^]), spindle multipolarity (SRC^[ [85] ^]), microtubule dynamics (AKT1^[ [86] ^]), and LIMK1/2 activation (ROCK1^[ [87] ^]) or are crucial for the mitosis (BUB1B, NEK2/9, WEE1^[ [88] ^]). Nonetheless, 1(R) and 1(S) at 10 µM had almost no inhibitory effects on any of the chosen kinases (Table 4 ). Only Aurora A (mean residual activity for 1(R): 86%, 1(S): 98%) and ASK1 (mean residual activity for 1(R): 90%, 1(S): 117%) were slightly enantioselectively impacted. However, we theorize that those marginal inhibitions are not explanatory for the antiproliferative and morphological effects of 1(R) on cancer cells.

BUB1B = BUB1B (Homo sapiens, UniProt O60566)
Protocol: as §1

CDK1/CycB1 = CDK1/CycB1 (Homo sapiens, UniProt P06493)
Protocol: as §1

CDK2/CycA2 = CDK2/CycA2 (Homo sapiens, UniProt P24941)
Protocol: as §1

CHK2 = target: T1, CHK2 (Homo sapiens, UniProt O96017)
T1 construct: gene CHEK2
Protocol: as §1

LIMK2 = LIMK2 (Homo sapiens, UniProt P53671)
Protocol: as §1

Mps1/TTK = target: T2, Mps1/TTK (Homo sapiens, UniProt P33981)
T2 sequence (P33981 1-857): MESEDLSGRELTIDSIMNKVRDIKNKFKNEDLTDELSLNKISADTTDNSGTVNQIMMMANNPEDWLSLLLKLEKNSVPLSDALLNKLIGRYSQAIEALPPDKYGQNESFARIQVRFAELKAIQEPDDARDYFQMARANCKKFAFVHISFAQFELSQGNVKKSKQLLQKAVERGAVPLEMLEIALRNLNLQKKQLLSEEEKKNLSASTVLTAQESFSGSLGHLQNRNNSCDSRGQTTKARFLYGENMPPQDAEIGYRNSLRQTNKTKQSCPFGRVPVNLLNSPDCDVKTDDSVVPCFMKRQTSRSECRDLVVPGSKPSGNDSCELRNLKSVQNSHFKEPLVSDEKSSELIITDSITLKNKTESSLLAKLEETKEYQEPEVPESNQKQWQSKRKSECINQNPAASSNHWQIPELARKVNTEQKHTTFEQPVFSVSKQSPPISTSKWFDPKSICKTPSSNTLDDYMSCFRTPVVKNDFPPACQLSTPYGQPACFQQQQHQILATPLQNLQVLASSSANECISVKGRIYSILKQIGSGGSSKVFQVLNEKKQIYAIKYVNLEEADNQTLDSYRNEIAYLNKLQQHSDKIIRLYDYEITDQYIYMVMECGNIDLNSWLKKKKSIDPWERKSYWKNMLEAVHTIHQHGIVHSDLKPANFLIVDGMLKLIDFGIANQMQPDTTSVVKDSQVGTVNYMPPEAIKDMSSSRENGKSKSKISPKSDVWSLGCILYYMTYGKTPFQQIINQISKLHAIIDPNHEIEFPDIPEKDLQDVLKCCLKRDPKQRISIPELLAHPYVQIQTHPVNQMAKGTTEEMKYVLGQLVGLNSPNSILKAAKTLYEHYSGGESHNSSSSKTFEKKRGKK
Protocol: as §1

NEK2 = target: T3, NEK2 (Homo sapiens, UniProt P51955)
T3 sequence (P51955 1-445): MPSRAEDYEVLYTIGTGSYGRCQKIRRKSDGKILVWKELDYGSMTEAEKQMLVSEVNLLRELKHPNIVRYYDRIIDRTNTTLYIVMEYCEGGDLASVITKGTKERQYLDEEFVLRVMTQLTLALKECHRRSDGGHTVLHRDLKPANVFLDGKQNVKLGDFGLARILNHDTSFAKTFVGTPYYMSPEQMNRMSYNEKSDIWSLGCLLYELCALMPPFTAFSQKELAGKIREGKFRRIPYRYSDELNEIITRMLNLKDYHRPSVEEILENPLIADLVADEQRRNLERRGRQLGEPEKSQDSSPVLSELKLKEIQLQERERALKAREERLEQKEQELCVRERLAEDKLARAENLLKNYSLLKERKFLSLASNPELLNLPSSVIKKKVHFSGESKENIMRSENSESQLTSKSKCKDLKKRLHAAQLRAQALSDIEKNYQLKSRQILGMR
Protocol: as §1

ROCK1 = ROCK1 (Homo sapiens, UniProt Q13464)
Protocol: as §1

SRC = SRC (Homo sapiens, UniProt P12931)
Protocol: as §1

[1] = read-out: Residual activities [% of control] / 1(R) 10 µM
[2] = read-out: Residual activities [% of control] / 1(S) 10 µM

Sequence of ROCK1 (Q13464 whole entry): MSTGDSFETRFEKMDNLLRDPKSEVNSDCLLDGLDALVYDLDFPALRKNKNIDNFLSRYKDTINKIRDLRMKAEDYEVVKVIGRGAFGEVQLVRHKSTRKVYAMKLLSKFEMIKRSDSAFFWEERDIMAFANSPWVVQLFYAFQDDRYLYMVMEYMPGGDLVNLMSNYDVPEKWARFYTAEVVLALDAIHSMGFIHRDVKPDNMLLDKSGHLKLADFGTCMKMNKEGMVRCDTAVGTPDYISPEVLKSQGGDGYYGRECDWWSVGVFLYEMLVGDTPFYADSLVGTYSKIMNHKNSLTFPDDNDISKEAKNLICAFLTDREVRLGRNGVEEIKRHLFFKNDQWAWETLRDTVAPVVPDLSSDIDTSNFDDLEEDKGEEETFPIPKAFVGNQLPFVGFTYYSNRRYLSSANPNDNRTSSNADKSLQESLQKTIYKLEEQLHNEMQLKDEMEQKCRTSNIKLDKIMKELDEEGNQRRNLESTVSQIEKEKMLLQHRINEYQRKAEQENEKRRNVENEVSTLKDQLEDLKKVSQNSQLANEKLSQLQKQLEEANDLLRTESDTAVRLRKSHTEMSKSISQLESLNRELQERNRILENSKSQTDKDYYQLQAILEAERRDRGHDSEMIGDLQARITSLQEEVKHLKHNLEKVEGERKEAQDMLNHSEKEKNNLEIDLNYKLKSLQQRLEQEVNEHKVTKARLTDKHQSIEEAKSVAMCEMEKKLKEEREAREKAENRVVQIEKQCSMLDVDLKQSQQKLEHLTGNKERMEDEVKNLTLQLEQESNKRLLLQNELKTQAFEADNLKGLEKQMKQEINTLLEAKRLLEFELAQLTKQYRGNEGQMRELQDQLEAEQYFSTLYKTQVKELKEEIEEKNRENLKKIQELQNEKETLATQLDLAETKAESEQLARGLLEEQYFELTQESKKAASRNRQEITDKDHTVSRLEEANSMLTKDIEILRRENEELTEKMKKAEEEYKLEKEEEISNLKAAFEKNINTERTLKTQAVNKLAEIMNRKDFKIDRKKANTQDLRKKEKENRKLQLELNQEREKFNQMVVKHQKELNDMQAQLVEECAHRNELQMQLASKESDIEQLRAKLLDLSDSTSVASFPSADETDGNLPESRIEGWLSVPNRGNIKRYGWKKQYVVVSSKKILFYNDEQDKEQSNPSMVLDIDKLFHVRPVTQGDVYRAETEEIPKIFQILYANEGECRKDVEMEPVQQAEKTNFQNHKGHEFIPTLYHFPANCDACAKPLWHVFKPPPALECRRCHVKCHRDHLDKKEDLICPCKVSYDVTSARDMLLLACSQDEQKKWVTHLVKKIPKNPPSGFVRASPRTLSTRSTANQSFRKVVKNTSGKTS
Sequence of SRC (P12931 whole entry): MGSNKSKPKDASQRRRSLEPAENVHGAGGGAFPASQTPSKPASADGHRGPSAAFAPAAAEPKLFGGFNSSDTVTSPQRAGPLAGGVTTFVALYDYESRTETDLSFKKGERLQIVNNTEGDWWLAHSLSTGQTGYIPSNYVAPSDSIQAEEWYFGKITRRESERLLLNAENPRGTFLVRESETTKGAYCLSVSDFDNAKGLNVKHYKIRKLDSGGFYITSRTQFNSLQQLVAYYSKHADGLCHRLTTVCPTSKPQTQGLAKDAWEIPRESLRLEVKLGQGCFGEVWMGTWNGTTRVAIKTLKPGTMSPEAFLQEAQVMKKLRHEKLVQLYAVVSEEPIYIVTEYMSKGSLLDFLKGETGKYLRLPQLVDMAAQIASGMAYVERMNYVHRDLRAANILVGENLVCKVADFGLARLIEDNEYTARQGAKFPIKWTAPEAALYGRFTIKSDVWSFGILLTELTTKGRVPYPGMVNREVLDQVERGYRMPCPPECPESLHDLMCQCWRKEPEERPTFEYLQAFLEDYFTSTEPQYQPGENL
Sequence of BUB1B (O60566 whole entry): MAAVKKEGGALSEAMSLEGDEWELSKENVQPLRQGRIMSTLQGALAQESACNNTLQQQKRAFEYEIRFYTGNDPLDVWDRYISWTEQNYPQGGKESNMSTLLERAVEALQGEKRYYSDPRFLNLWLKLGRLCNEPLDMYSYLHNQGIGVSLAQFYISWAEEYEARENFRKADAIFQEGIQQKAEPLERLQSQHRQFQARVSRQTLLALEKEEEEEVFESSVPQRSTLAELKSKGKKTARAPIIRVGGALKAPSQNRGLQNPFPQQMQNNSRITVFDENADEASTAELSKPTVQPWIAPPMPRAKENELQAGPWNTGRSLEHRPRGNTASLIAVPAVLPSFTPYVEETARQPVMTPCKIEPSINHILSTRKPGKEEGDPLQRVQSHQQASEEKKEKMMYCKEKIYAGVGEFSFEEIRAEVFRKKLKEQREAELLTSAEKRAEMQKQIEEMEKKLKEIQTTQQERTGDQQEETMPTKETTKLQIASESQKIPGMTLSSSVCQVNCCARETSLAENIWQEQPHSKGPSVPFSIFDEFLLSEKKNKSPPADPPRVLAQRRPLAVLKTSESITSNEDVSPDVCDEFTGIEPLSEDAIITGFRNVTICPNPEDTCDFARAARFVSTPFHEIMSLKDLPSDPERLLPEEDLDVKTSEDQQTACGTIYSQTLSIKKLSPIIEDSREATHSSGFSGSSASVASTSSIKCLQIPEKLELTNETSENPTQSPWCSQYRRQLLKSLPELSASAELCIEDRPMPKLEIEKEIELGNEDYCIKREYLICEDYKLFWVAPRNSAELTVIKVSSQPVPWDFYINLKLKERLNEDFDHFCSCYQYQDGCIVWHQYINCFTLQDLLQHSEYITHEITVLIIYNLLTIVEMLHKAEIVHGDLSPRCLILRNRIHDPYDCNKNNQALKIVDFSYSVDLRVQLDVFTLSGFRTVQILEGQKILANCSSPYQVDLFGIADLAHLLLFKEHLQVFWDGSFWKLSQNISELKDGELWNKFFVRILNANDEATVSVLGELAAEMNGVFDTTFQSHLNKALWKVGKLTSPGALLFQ
Sequence of CDK1/CycB1 (P06493 whole entry): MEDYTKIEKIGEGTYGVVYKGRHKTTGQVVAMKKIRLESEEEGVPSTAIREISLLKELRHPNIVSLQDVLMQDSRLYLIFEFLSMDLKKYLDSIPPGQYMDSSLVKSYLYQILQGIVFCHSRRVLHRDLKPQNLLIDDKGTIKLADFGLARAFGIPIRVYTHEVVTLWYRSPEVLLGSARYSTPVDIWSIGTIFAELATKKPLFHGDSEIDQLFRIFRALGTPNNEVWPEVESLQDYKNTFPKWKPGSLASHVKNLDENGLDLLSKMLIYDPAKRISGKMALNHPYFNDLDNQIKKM
Sequence of CDK1/CycB1 (P14635 whole entry partner): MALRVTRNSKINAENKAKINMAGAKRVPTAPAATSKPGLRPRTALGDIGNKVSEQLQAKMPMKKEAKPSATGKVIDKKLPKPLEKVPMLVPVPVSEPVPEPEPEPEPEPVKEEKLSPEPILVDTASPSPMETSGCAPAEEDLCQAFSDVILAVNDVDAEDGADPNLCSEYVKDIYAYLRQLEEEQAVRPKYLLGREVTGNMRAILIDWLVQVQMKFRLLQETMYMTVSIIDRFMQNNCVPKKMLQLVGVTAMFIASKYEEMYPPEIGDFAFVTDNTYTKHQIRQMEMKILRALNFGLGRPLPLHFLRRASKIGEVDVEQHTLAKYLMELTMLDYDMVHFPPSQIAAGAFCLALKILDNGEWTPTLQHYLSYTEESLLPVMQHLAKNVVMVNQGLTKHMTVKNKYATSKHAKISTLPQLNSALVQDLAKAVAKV
T1 sequence (O96017 whole entry): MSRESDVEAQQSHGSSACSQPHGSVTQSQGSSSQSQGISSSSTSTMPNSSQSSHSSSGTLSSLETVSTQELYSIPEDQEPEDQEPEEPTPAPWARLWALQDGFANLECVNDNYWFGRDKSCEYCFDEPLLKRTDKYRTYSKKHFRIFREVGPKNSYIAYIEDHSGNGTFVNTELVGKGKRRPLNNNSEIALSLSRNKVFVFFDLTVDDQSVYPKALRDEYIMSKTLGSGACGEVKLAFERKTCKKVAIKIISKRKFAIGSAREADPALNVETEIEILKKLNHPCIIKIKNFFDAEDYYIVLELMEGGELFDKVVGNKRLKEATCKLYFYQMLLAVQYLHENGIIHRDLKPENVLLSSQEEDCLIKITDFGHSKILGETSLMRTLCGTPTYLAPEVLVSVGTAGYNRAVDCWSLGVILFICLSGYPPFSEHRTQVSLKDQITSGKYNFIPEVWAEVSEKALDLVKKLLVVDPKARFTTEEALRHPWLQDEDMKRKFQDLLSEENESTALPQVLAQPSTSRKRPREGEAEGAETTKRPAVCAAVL
Sequence of AKT1 (P31749 whole entry): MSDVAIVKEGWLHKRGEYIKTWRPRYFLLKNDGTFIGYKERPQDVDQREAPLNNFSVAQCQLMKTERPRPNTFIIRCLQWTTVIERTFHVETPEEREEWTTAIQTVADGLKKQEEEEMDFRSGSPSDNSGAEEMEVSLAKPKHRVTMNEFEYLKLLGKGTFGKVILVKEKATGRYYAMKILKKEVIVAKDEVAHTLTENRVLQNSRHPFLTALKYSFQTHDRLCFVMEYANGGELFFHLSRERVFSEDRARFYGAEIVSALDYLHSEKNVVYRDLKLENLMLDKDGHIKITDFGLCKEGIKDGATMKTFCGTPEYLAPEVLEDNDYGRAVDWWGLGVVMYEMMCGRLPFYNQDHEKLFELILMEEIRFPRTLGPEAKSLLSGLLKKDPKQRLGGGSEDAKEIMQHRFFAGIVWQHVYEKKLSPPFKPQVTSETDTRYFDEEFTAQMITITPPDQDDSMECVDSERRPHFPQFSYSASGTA

remaining activity at 10 µM (AKT1; [1]) [%] | remaining activity at 10 µM (BUB1B; [1]) [%] | remaining activity at 10 µM (CDK1/CycB1; [1]) [%] | remaining activity at 10 µM (CDK2/CycA2; [1]) [%] | remaining activity at 10 µM (CHK2; [1]) [%] | remaining activity at 10 µM (LIMK2; [1]) [%] | remaining activity at 10 µM (Mps1/TTK; [1]) [%] | remaining activity at 10 µM (NEK2; [1]) [%] | remaining activity at 10 µM (ROCK1; [1]) [%] | remaining activity at 10 µM (SRC; [1]) [%] | remaining activity at 10 µM (AKT1; [2]) [%] | remaining activity at 10 µM (BUB1B; [2]) [%] | remaining activity at 10 µM (CDK1/CycB1; [2]) [%] | remaining activity at 10 µM (CDK2/CycA2; [2]) [%] | remaining activity at 10 µM (CHK2; [2]) [%] | remaining activity at 10 µM (LIMK2; [2]) [%] | remaining activity at 10 µM (Mps1/TTK; [2]) [%] | remaining activity at 10 µM (NEK2; [2]) [%] | remaining activity at 10 µM (ROCK1; [2]) [%] | remaining activity at 10 µM (SRC; [2]) [%] | Structure (SMILES)
99 | 118 | 101 | 95 | 97 | 106 | 98 | 106 | 100 | 99 |  |  |  |  |  |  |  |  |  |  | Nc1ccc2ccccc2c1-c1c(N)ccc2ccccc12 [1(R), (R)‐[1,1′‐binaphthalene]‐2,2′‐diamine]
 |  |  |  |  |  |  |  |  |  | 101 | 111 | 100 | 92 | 104 | 98 | 97 | 96 | 97 | 103 | Nc1ccc2ccccc2c1-c1c(N)ccc2ccccc12 [1(S), S‐BINAM]
